# Results reported in patent US20230099344A1, “COMPOUNDS AND METHODS FOR THE TARGETED DEGRADATION OF IRAK-4” (Arvinas Operations, Inc., priority 2021, published 2023).
# Assays:
# Format in all cases: cell-based
# [1] = molecular target: T1, IRAK-4 (Homo sapiens, UniProt Q9NWZ3); assay: IRAK-4 ELISA, OCI-Ly10 degradation; set-up: endogenous in cells; details: treated overnight; for Dmax: OCI-Ly10, OCI-Ly10 cells
# T1 sequence (Q9NWZ3 1-460): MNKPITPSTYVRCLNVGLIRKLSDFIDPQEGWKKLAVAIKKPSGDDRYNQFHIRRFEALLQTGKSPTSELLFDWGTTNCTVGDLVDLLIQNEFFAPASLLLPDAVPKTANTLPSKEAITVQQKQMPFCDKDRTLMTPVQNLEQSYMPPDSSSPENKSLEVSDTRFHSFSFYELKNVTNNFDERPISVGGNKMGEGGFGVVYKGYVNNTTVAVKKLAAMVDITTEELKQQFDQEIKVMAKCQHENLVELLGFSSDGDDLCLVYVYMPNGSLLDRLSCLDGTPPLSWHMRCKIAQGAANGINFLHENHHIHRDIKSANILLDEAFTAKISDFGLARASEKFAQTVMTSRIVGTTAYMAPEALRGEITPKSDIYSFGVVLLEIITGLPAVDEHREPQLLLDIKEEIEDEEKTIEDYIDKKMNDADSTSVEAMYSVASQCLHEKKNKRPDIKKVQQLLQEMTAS
# Protocol: Reagents: Human IRAK-4 Matched Antibody Pair Kit (Abcam ab218182) and ELISA Accessory Pack (Abcam ab210905).
# Cell Treatment and Lysis:
# 1. OCI-Ly10: 200,000 cells are seeded at 1×10^6/ml in 96-well U-bottom plates 200 ul per well, treated with compound the same day. Incubate overnight. 2. PBMC: 800,000 cells are seeded at 2×10^6/ml in 96-well U-bottom deep-well plates, 400 ul per well, treated with compound the same day. Incubate overnight.
# Cell lysate is collected and analyzed by ELISA for IRAK-4 levels.
# [2] = system: IL6; assay: LPS stimulated IL6 inhibition assay in PBMC; details: Homo sapiens, PBMC, 24 h, human PBMCs, LPS stimulation, compound overnight, IL6 by MSD after 24 hrs; for Dmax: read-out: LPS Stim IL6 inhibition Dmax; for IC50: read-out: LPS stim IL6 inhibition IC50
# How it was run: (§1)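 Read-out: MSD quantification of IL6 or IL8 in media collected 24 hrs after stimulation. Human PBMCs (2.0×10^6 cells/mL) received compound overnight before stimulant dosing at an EC50 concentration determined per donor.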
# [3] = system: IL6; assay: R848 stimulated IL6 inhibition assay in PBMC; details: PBMC, human PBMCs, R848 stimulation, compound overnight, IL6 by MSD after 24 hrs; for Dmax: Homo sapiens, 24 h, read-out: R848 stim IL6 inhibition Dmax; for IC50: read-out: R848 stim IL6 inhibition IC50
# How it was run: as §1
# [4] = molecular target: T1, IRAK-4; assay: IRAK-4 ELISA, PBMC degradation; set-up: endogenous in cells; host or cells: PBMC; details: treated overnight
# How it was run: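 ELISA quantification of cellular IRAK-4 after compound treatment overnight; PBMC were plated at 2×10^6/ml, OCI-Ly10 at 1×10^6/ml.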
Compound,Dmax [1] [%],DC50 ([1]; OCI-Ly10 cells) [nM],OCI-LY10 Dmax ([1]; OCI-Ly10 cells),IC50 [2] [nM],IC50 [3] [nM],DC50 [4] [nM],Dmax [4] [%],PBMC DC90 [4],Dmax [2] [%],Dmax [3] [%]
COc1cc2nn(C3CCN(CC4CN(c5ccc6c(c5)C(=O)N(C5CCC(=O)NC5=O)C6=O)C4)CC3)cc2cc1NC(=O)c1cnn2cc(Cl)cnc12 (centres unmarked) [Example 203],≥ 90,< 10,,,,,,,,
COc1cc2nn([C@H]3CC[C@@H](N(C)C4CN(c5ccc6c(c5)C(=O)N(C5CCC(=O)NC5=O)C6=O)C4)CC3)cc2cc1NC(=O)c1cnn2cccnc12 (some centres unmarked) [Example 333],,≥ 100,,,,,,,,
O=C1CCC(NC(=O)c2ccc(N3CCC(CN4CCC(n5cc6cc(NC(=O)c7cnn8cc(Cl)cnc78)c(OCC7CC7)cc6n5)CC4)CC3)cc2F)C(=O)N1 (centres unmarked) [Example 289],≥ 90,10 to 50,,,,,,,,
O=C1CCC(N2C(=O)c3ccc(CN4CCC(n5cc6cc(NC(=O)c7cnn8cccnc78)c(OCC7CC7)cc6n5)CC4)cc3C2=O)C(=O)N1 (centres unmarked) [Example 123],,≥ 100,,,,,,,,
CC(C)Oc1cc2c(cc1NC(=O)c1cnn3cccnc13)CN(C1CCN(Cc3ccc4c(c3)CN(C3CCC(=O)NC3=O)C4=O)CC1)C2=O (centres unmarked) [Example 10],,≥ 100,,,,,,,,
"CC(C)(O)c1cc2nn(C3CCN(CC4CN(c5ccc6c(c5)C(=O)N(C5CCC(=O)NC5=O)C6=O)C4)CC3)cc2cc1NC(=O)c1cnn2cc(Cl)cnc12 (centres unmarked) [Example 391, 6-chloro-N-(2-(1-((1-(2-(2,6-dioxopiperidin-3-yl)-1,3-dioxoisoindolin-5-yl)azetidin-3-yl)methyl)piperidin-4-yl)-6-(2-hydroxypropan-2-yl)-2H-indazol-5-yl)pyrazolo[1,5-a]pyrimidine-3-carboxamide]",80 to 90,10 to 50,,,,,,,,
O=C1CCC(N2C(=O)c3ccc(N4CCN(C[C@H]5CC[C@H](N6Cc7cc(NC(=O)c8cnn9cccnc89)c(N8CCN(CC(F)F)CC8)cc7C6=O)CC5)CC4)cc3C2=O)C(=O)N1 (some centres unmarked) [371′],,,,10 to 50,10 to 50,1 to 5,≥ 90,B (B represents a DC90 value ≥10.0 nM and <25.0 nM),< 70,≥ 90
O=C1CCC(N2C(=O)c3ccc(N4CC(F)(CN5CCC(N6Cc7cc(NC(=O)c8cnn9cccnc89)c(N8CCC(N9CCC9)CC8)cc7C6=O)CC5)C4)cc3C2=O)C(=O)N1 (centres unmarked) [Example 116],,,,< 10,< 10,1 to 5,≥ 90,B (B represents a DC90 value ≥10.0 nM and <25.0 nM),80 to 90,≥ 90
O=C1CCC(N2C(=O)c3ccc(O[C@H]4C[C@H](N[C@H]5CC[C@H](n6cc7cc(NC(=O)c8cnn9cccnc89)c(OCC8CC8)cc7n6)CC5)C4)cc3C2=O)C(=O)N1 (some centres unmarked) [Example 374],,,,10 to 50,10 to 50,< 1,≥ 90,B (B represents a DC90 value ≥10.0 nM and <25.0 nM),70 to 80,≥ 90
CCN([C@H]1CC[C@H](n2cc3cc(NC(=O)c4cnn5cccnc45)c(OCC4CC4)cc3n2)CC1)[C@H]1C[C@H](Oc2ccc3c(c2)C(=O)N(C2CCC(=O)NC2=O)C3=O)C1 (some centres unmarked) [Example 373],,,,10 to 50,10 to 50,< 1,≥ 90,A (A represents a DC90 value <10.0 nM),70 to 80,80 to 90
CC(C)Oc1cc2c(cc1NC(=O)c1cnn3cccnc13)CN(C1CCN(CC3(F)CN(c4cc(F)c5c(c4)C(=O)N(C4CCC(=O)NC4=O)C5)C3)CC1)C2=O (centres unmarked) [Example 108],,,,10 to 50,10 to 50,1 to 5,≥ 90,B (B represents a DC90 value ≥10.0 nM and <25.0 nM),80 to 90,≥ 90
CC(C)Oc1cc2c(cc1NC(=O)c1cnn3cccnc13)CN([C@H]1CC[C@H](N(C)CC3(F)CN(c4ccc5c(c4)C(=O)N(C4CCC(=O)NC4=O)C5=O)C3)CC1)C2=O (some centres unmarked) [Example 365],,,,< 10,10 to 50,1 to 5,≥ 90,A (A represents a DC90 value <10.0 nM),< 70,≥ 90
CN1CC(Oc2cc3nn(C4CCN(CC5(F)CN(c6ccc7c(c6)C(=O)N(C6CCC(=O)NC6=O)C7=O)C5)CC4)cc3cc2NC(=O)c2cnn3cccnc23)C1 (centres unmarked) [Example 263],,,,< 10,10 to 50,≥ 10,≥ 90,A (A represents a DC90 value <10.0 nM),< 70,≥ 90
O=C1CCC(N2C(=O)c3ccc(N4CC(F)(CN5CCC(n6cc7cc(NC(=O)c8cnn9cccnc89)c(OCC8CC8)cc7n6)CC5)C4)c(F)c3C2=O)C(=O)N1 (centres unmarked) [Example 262],,,,50 to 100,10 to 50,1 to 5,70 to 80,A (A represents a DC90 value <10.0 nM),< 70,≥ 90

# Second part, led by results:
Dmax [1] [%],DC50 ([1]; OCI-Ly10 cells) [nM],OCI-LY10 Dmax ([1]; OCI-Ly10 cells),IC50 [2] [nM],IC50 [3] [nM],DC50 [4] [nM],Dmax [4] [%],PBMC DC90 [4],Compound,Dmax [2] [%],Dmax [3] [%]
≥ 90,< 10,,,,,,,"O=C1CCC(N2Cc3cc(N4CCC(CN5CCC(n6cc7cc(NC(=O)c8cnn9cccnc89)c(OCC8CC8)cc7n6)CC5)CC4)ccc3C2=O)C(=O)N1 (centres unmarked) [Example 118, N-(6-(cyclopropylmethoxy)-2-(1-((1-(2-(2,6-dioxopiperidin-3-yl)-1-oxoisoindolin-5-yl)piperidin-4-yl)methyl)piperidin-4-yl)-2H-indazol-5-yl)pyrazolo[1,5-a]pyrimidine-3-carboxamide]",,
≥ 90,10 to 50,,,,,,,CC(C)Oc1cc2c(cc1NC(=O)c1cnn3cccnc13)CN(C1CCN(C3CN(c4cc5c(cc4F)C(=O)N(C4CCC(=O)NC4=O)C5=O)C3)CC1)C2=O (centres unmarked) [Example 63],,
< 70,≥ 100,,,,,,,O=C1CCC(N2Cc3cc(C#CCN4CCC(n5cc6cc(NC(=O)c7cnn8cccnc78)c(OCC7CC7)cc6n5)CC4)ccc3C2=O)C(=O)N1 (centres unmarked) [Example 179],,
80 to 90,10 to 50,,,,,,,O=C1CCC(N2C(=O)c3ccc(N4CCC(CN5CCC(N6Cc7cc(NC(=O)c8cnn9cc(Cl)cnc89)c(N8CCOCC8)cc7C6=O)CC5)CC4)cc3C2=O)C(=O)N1 (centres unmarked) [Example 33],,
,≥ 100,,,,,,,O=C1CCC(N2Cc3cc(N4CC(CN5CCC(N6Cc7cc(NC(=O)c8cnn9cccnc89)c(N8CCOCC8)cc7C6=O)CC5)C4)ccc3C2=O)C(=O)N1 (centres unmarked) [Example 34],,
70 to 80,50 to 100,,,,,,,CC(C)(O)c1cc2nn(C3CCN(CC4CN(c5ccc6c(c5)C(=O)N(C5CCC(=O)NC5=O)C6=O)C4)CC3)cc2cc1NC(=O)c1cnn2cccnc12 (centres unmarked) [Example 392],,
,≥ 100,,,,,,,O=C1CCC(N2C(=O)c3ccc(CCN4CCC(N5Cc6cc(NC(=O)c7cnn8cccnc78)c(N7CCOCC7)cc6C5=O)CC4)cc3C2=O)C(=O)N1 (centres unmarked) [Example 37],,
,≥ 100,,,,,,,CC(C)Oc1cc2c(cc1NC(=O)c1cnn3cccnc13)CN(CC1CN(CCc3ccc4c(c3)CN(C3CCC(=O)NC3=O)C4=O)C1)C2=O (centres unmarked) [Example 26],,
,50 to 100,D (D represents a Dmax value <70),,,,,,O=C1CCC(NC(=O)c2ccc(N3CCC(CN4CCC(n5cc6cc(NC(=O)c7cnn8cccnc78)c(OCC7CC7)cc6n5)CC4)CC3)cc2F)C(=O)N1 (centres unmarked) [Example 290],,
,,,50 to 100,50 to 100,≥ 10,70 to 80,D (D represents a DC90 value ≥50 nM),CC1(CN2CCC(n3cc4cc(NC(=O)c5cnn6cccnc56)c(OCC5CC5)cc4n3)CC2)CN(c2cc3c(cc2F)C(=O)N(C2CCC(=O)NC2=O)C3=O)C1 (centres unmarked) [Example 222],70 to 80,≥ 90
,,,10 to 50,10 to 50,1 to 5,≥ 90,A (A represents a DC90 value <10.0 nM),O=C1CCC(NC(=O)c2ccc(O[C@H]3C[C@H](N[C@H]4CC[C@H](n5cc6cc(NC(=O)c7cnn8cccnc78)c(OCC7CC7)cc6n5)CC4)C3)cc2F)C(=O)N1 (some centres unmarked) [Example 376],70 to 80,≥ 90
,,,< 10,10 to 50,1 to 5,≥ 90,A (A represents a DC90 value <10.0 nM),O=C1CCC(N2Cc3cc(N4CCC(CN5CCC(N6Cc7cc(NC(=O)c8cnn9cccnc89)c(N8CCN(C9CC(F)(F)C9)CC8)cc7C6=O)CC5)CC4)ccc3C2=O)C(=O)N1 (centres unmarked) [Example 54],< 70,80 to 90
